Patent US20250154201A1, “PEPTIDE BINDING TO MESOTHELIN, AND USE THEREOF” (KYUNGPOOK NATIONAL UNIVERSITY INDUSTRY-ACADEMIC COOPERATION …, priority 2022, published 2025)

What was measured:
[1] = test system: mesothelin-expressing pancreatic cancer cell lines AsPC-1, PANC-1, BxPC-3, and MiaPaCa-2; experiment: immunofluorescence binding of MSLN-pep to pancreatic cancer cell lines; type: cell-based, human; settings: 10 μM and 25 μM MSLN-pep
Text: Taken together, it was found via immunofluorescence analysis that MSLN-pep specifically binds to mesothelin.

[2] = test system: PANC-1 and AsPC-1 cell lines; experiment: analysis of migration (24-transwell); type: cell-based, human; settings: 24 hours
Protocol: PANC-1 and AsPC-1 cell lines were cultured using DMEM and RPMI-1640 media with 10% FBS added respectively in the upper chamber of 24-transwell at a concentration of 2×10^4 cells per well. After 24 hours, all the media in the upper chamber of 24-transwells were removed and replaced with DMEM and RPMI-1640 media without addition of 10% FBS to inhibit migratability of cell lines, so as to be in a starvation state. After 24 hours, the experimental group was added with 10% FBS in the lower chamber, and the control was added with 0% FBS in the lower chamber to observe migratability. 3% ACN, 200 μM control peptide (Ctrl-pep), MSLN-pep 25. For 50, 100, and 200 μM groups, the media in the upper chamber of 24-Transwell were removed, each drug was treated by concentration, and 10% FBS was treated in the lower chamber. Each group was cultured at 37° C. for 24 hours, and then the cells were photographed (original magnification, ×100) by concentration of each peptide. Cells were stained with crystal violet (0.1%), and the ImageJ, a computer program, was used for quantitative evaluation.
(§1) After pancreatic cancer cell lines PANC-1 and AsPC-1 were cultured in 24-transwells, all cells were starved for 24 hours to inhibit cell growth, and then treatment was performed in divided groups of 10% FBS, 0% FBS, 3% ACN+10% FBS, 200 μM NSSSVDK+10% FBS, 25 μM MSLN-pep+10% FBS, 50 μM MSLN-pep+10% FBS, 100 μM MSLN-pep+10% FBS, and 200 μM MSLN-pep+10% FBS.

[3] = test system: PANC-1 and AsPC-1 cell lines; experiment: analysis of invasion (Matrigel-coated 24-transwell); type: cell-based, human; settings: 24 hours
Protocol: PANC-1 and AsPC-1 cell lines were cultured using DMEM and RPMI-1640 media with 10% FBS added in 100 mm dish each at a concentration of 2×10^6 cells per well. After 24 hours, all media in 100 mm dishes were removed and replaced with DMEM and RPMI-1640 media without addition of 10% FBS to inhibit migratability of cell lines so as to be in a starvation state. After 24 hours, 300 μg/mL of Matrigel was coated on the upper chamber of 24-Transwell. Afterwards, PANC-1 and AsPC-1 cell lines were cultured in the upper chamber at a concentration of 2×10^4 cells in a 100 mm dish, 10% FBS was added to the lower chamber for the experimental group, and 0% FBS was added to the lower chamber for the control group to identify migratability. 3% ACN, 200 μM control peptide (Ctrl-pep), MSLN-pep 25. For 50, 100, and 200 μM groups, each cell line was cultured together in the upper chamber of the 24-Transwell, and 10% FBS was treated in the lower chamber. Each group was cultured at 37° C. for 24 hours, and then the cells were photographed (original magnification, ×100) for each concentration of peptides. Cells were stained with crystal violet (0.1%), and Image J, a computer program, was used for quantitative evaluation.
as §1

[4] = test system: AsPC-1 tumor; experiment: tumor homing of peptides in mice; type: in vivo, nude mice; settings: TAMRA-labeled, intravenous, 6 hours circulation
Protocol: Pancreatic cancer cell line AsPC-1 cells (1×10^7 cells) were implanted under the skin of nude mice, left until the tumor size reaches about 100 mm^3, and then intravenously injected with 100 μl of 1 mM peptides labeled with a TAMRA fluorescence reagent, followed by circulation for 6 hours. Tumors and organs (liver, lung, and kidney) were separated and treated with paraformaldehyde for fixation and preparation of cryosections. The prepared cryosections were observed under a fluorescence microscope.
Pancreatic cancer cell line AsPC-1 cells (1×10^7 cells) were implanted under
the skin of nude mice, left until the tumor size reached about 100 mm^3, and then intravenously injected with MSLN-pep labeled with the TAMRA fluorescence reagent and control peptide (Ctrl-pep), followed by circulation for 6 hours. The tumor and control organs were separated, and cryosections were prepared, followed by observation under a fluorescence microscope.

[5] = in vitro; settings: human
Protocol: Pancreatic cancer cell line AsPC-1 cells (5×10^3 cells/well in 96-well plates) were cultured in 1% serum medium with various concentrations of MSLN-pep peptide that specifically binds to mesothelin, NSSSVDK control peptide (Ctrl-pep), R7-KLA peptide that induces apoptosis, Abraxane, gemcitabine, and PBS at 37° C. for 24 and 48 hours. Afterwards, CCK-8 Kit (Dojindo, Kumamoto, Japan) reagent was treated, and a reaction was carried out at 37° C. for 2 hours to evaluate cytotoxicity.
To determine whether there is cytotoxicity when MSLN-pep binds specifically to mesothelin, the peptide was treated to the pancreatic cancer cell line AsPC-1 at concentrations of 0, 25, 50, 100, and 200 μM, and cell viability was checked for 24 and 48hours.

[6] = target: mesothelin (Homo sapiens, UniProt Q13421); experiment: co-localization of TAMRA-labeled MSLN-pep with mesothelin antibody (confocal microscopy); type: cell-based; set-up: endogenous in cells; settings: AsPC-1, PANC-1, BxPC-3
Protocol: Pancreatic cancer cell lines AsPC-1, PANC-1, and BxPC-3 were cultured in a 4-well chamber and then treated with mesothelin antibodies to determine the location where mesothelin is expressed.

Sequence of mesothelin (Q13421 with tags, fused parts or gaps limits assumed): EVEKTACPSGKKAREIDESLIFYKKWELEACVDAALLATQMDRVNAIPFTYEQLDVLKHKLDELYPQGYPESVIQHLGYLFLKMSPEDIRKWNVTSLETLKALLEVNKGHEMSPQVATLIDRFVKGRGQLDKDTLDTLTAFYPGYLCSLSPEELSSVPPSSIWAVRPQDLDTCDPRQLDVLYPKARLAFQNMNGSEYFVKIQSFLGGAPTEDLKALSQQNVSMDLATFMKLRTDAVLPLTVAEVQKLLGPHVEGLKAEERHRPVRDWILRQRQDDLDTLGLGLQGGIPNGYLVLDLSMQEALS

CC[C@H](C)[C@@H]1NC(=O)[C@H]([C@@H](C)O)NC(=O)[C@@H](N)CSSC[C@@H](C(=O)O)NC(=O)[C@H]([C@@H](C)O)NC(=O)[C@H](CC(C)C)NC(=O)[C@H](CO)NC(=O)[C@H](Cc2c[nH]c3ccccc23)NC(=O)[C@H](CC(C)C)NC1=O [MSLN-pep]
specific binding (immunofluorescence) [1]: specific binding of MSLN-pep even at 10 μM with the further increase at 25 μM | migratability compared to treatment of 10% FBS ([2]; 25 μM + 10% FBS): no difference in the migratability and invasiveness | migratability ([2]; 50, 100 and 200 μM + 10% FBS): suppressed with increasing concentrations of MSLN-pep | invasiveness compared to treatment of 10% FBS ([3]; 25 μM + 10% FBS): no difference in the migratability and invasiveness | invasiveness ([3]; 50, 100 and 200 μM + 10% FBS): suppressed with increasing concentrations of MSLN-pep | targeting to control organs (fluorescence microscopy of cryosections) ([4]; liver, lungs, kidneys): barely observed | targeting to tumor tissue (fluorescence microscopy of cryosections) ([4]; tumor tissue): observed at a higher level compared to the control | viability at 200 µM [5]: ~80% | location of binding site relative to mesothelin expression [6]: binding took place at the same spot where the mesothelin is expressed
